Experimental data published in PMC3480437, “Abscisic Acid Signaling: Thermal Stability Shift Assays as Tool to Analyze Hormone Perception and Signal Transduction” (PLoS ONE, 2012).

Experiments:
Type in all cases: binding
[1] = biological target: T1, SnRK2.3 (Arabidopsis thaliana, UniProt Q39193); test: thermal shift (SYPRO Orange); details: 50 µM compound, 5 µM kinase
T1 construct: gene SRK2I; full length, recombinant from E. coli; untagged and as N-terminal MBP fusion (NAAAEF linker)
T1 sequence (Q39193 1-361): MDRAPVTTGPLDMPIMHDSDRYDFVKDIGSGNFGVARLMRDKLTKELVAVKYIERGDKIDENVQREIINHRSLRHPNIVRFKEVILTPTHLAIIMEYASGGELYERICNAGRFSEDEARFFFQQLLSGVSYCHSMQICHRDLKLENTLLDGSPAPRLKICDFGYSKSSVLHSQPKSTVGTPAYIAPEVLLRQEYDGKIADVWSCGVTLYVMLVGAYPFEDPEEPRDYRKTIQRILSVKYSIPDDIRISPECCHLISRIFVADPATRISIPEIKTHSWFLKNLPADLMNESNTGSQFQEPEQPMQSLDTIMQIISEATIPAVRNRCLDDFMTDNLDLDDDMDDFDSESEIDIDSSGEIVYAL

[2] = biological target: T2, SnRK2.6 (Arabidopsis thaliana, UniProt Q940H6); test: thermal shift (SYPRO Orange); details: 50 µM compound, 5 µM kinase
T2 construct: gene SRK2E; full length, recombinant from E. coli; untagged in TSA, H6GST fusion in kinase assay
T2 sequence (Q940H6 1-362): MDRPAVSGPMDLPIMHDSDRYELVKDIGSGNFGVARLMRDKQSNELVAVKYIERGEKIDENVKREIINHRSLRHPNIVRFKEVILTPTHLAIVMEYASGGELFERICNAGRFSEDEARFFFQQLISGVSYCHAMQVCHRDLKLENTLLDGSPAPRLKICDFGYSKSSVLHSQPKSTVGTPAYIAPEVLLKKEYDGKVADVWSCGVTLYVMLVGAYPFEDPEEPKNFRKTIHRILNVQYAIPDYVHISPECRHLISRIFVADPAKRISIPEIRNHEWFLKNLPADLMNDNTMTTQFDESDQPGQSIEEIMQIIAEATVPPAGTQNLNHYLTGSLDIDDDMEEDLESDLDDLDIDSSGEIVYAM

[3] = biological target: T3, SnRK2.2 (Arabidopsis thaliana, UniProt Q39192); test: thermal shift (SYPRO Orange); details: 50 µM compound
T3 construct: gene SRK2D
T3 sequence (Q39192 1-362): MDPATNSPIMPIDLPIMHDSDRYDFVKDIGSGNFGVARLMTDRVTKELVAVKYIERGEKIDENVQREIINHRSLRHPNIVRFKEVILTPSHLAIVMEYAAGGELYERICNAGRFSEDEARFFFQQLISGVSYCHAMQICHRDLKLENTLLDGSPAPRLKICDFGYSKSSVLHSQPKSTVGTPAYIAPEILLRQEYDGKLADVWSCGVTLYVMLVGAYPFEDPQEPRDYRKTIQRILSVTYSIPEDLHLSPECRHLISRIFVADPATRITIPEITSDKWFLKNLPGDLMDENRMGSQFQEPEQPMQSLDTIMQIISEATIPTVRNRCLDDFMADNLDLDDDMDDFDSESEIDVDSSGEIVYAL

[4] = biological target: T4, PYL1/HAB1 coreceptor complex (Arabidopsis thaliana, UniProt Q8VZS8); test: radioligand competition (SPA, 3H-ABA); details: 450 nM 3H-ABA, 10 µM HAB1, MOPS pH 7.4, room temperature; curve only in figure
T4 construct: H6GST-PYL1 on SPA beads plus HAB1 (172-511), both from E. coli; 1:1 complex; with Protein phosphatase 2C 16
T4 sequence (Q8VZS8 36-211): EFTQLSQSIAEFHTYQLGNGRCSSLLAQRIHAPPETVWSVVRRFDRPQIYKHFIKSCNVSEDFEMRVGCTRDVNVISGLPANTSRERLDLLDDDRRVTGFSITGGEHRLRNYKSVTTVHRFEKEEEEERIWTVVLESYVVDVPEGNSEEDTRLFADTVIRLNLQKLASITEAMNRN
T4 sequence (Q9CAJ0 172-511 partner): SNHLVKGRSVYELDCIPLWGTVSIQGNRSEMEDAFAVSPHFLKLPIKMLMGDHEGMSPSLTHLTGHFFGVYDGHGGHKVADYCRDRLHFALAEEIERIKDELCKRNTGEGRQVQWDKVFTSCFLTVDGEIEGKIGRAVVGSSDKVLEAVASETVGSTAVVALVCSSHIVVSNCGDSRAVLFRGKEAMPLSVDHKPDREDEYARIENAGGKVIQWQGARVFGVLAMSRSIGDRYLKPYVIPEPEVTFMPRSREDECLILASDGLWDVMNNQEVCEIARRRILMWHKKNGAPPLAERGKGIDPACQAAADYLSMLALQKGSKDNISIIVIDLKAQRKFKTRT

[5] = biological target: T5, PYL2 (Arabidopsis thaliana, UniProt O80992); test: thermal shift (SYPRO Orange); details: 500 µM pyrabactin, no PP2C; apo Tm not derivable
T5 construct: residues 14-188, recombinant from E. coli, receptor alone without PP2C; dimeric
T5 sequence (O80992 14-188): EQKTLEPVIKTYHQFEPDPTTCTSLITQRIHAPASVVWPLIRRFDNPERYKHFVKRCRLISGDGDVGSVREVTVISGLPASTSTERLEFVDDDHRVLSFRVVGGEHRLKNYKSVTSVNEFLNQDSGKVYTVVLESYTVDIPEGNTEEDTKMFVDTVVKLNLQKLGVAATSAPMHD

| SMILES | dTm [1] [°C] | dTm [2] [°C] | dTm [3] [°C] | radioligand competition (SPA, 3H-ABA) [4] | thermal shift (SYPRO Orange) [5] |
| --- | --- | --- | --- | --- | --- |
| O=C1NC(=O)c2c1c(-c1ccccc1Cl)cc1[nH]c3ccc(O)cc3c21 [Wee1 inhibitor] | > 3 | > 3 | > 3 |  |  |
| O=S(=O)(NCc1ccccn1)c1ccc(Br)c2ccccc12 [pyrabactin] |  |  |  | Competition of the interactions between ^3H-ABA and the PYL1/HAB1 (A) | suggesting that pyrabactin directly binds PYL2, but with an affinity that is lower |
